Earlier results, collected in patent EP3466413A1, “PHARMACEUTICAL COMPOSITION CONTAINING AGOMELATINE AND PROCESS FOR THE PREPARATION THEREOF” (KRKA, d.d., Novo mesto, priority 2017, dated 2019).
In brackets after ≈: the same amount, converted by molar mass. Read-outs that look alike come from different tables or passages of the source.

Key:
[1] = crystalline powder
[2] = second (proton) dissociation step, aqueous solution

| SMILES | solubility in aqueous buffers (aqueous buffers) | solubility in aqueous solution (aqueous solution over the physiological pH range) | solubility (dichloromethane) [mg/mL] | solubility (methanol) | solubility in organic solvents (organic solvents such as methanol and dichloromethane) | solubility in water (water) | hygroscopicity [1] | pKa2 [2] |
| --- | --- | --- | --- | --- | --- | --- | --- | --- |
| COc1ccc2cccc(CCNC(C)=O)c2c1 [Agomelatine, N[2-(7-methoxy-1-naphthyl)ethyl] acetamide] | very slightly soluble | very slightly soluble | ~80 (≈ 329 mM) | approximately 500 mg/ml | freely soluble | practically insoluble | non-hygroscopic | – |
| O=C(O)C(=O)O [oxalic acid] | – | – | – | – | – | – | – | 4.19 |
